From patent US6784160B1, “Biologically active pregnene compounds” (Harbor Branch Oceanographic Institution, Inc., priority 2002, dated 2004)

Legend:
Assay type in all cases: cell-based
A549 human lung cells = experiment: Cell cycle progression by flow cytometry (propidium iodide); conditions: 100 μg/ml, 24 hr
Method: Cell cycle studies were initiated in order to pinpoint a specific phase within the cell cycle in which discodermolide analogs were exerting their antiproliferative effect. A549 human lung cells were used as cell cycle targets to compare the effects of discodermolide and discodermolide analogs on perturbation of the cell cycle. Cell cycle analyses were performed as follows: A549 cells were incubated at 37° C. in 5% CO2 in air in the presence or absence of varying concentrations of discodermolide or discodermolide analogs for 24 hr. Cells were harvested, fixed in ethanol, washed, and stained with 0.2 mg/mL of propidium iodide (P.I.) together with 0.1 mg/mL of RNAse A. Stained preparations were analyzed on a Coulter EPICS ELITE flow cytometer with 488 nm excitation. Fluorescence measurements and resulting DNA histograms were collected from at least 10,000 P.I. stained cells at an emission wavelength of 690 nm. Raw histogram data was further analyzed using a cell cycle analysis program (Multicycle, Phoenix Flow Systems).

[1] = system: PANC-1 human pancreatic cell line; experiment: In vitro proliferation of PANC-1 cells (MTT); conditions: 72 hours exposure, read-out: PANC-1 (IC50 μg/ml)
Method: (§1) Swiftiapregnene was analyzed as to its effect on the proliferation of PANC-1 human pancreatic and P388 murine leukemia cell lines. P388 cells were obtained from Dr. R. Camalier, National Cancer Institute, Bethesda, Md., and PANC-1 cells were obtained from American Type Culture Collection, Rockville, Md. All cell lines were maintained in tissue culture medium (TCM; Roswell Park Memorial Institute RPMI 1640 supplemented with 100 U/mL penicillin, […] streptomycin, […] 1-glutamine, 18 mM HEPES, 0.05 mg/mL gentamicin (Life Technologies, Gaithersburg, Md.) and 10% fetal bovine serum) and cultured in plastic tissue culture flasks at 37° C. in humidified air containing 5% CO2. Stock cultures of P388 cells were subcultured 1:20 in fresh TCM every 2 to 3 days. Stock cultures of A549 cells were subcultured 1:10 every 3 to 4 days. To assess the antiproliferative effects of agents against the cells, […] cultures (96-well tissue culture plates, Nunc, Denmark) were established at 1×10^5 cells/mL in TCM or TCM containing the test agent at 0.03-5.0 μg/mL. After 48-h exposures, P388 cells were enumerated using 3-[4,5-dimethylthiazol-2-yl]-2,5-diphenyltetrazolium bromide (MTT) as described in the literature (M. C. Alley, et al., Cancer Res. 48:589, 1988). […] The results were expressed as percent inhibition compared to the negative (no drug) control. […]

[2] = system: P388 murine leukemia cell line; experiment: In vitro proliferation of P388 cells (MTT); conditions: Mus musculus, 48-h exposure, read-out: P388 (IC50 μg/ml)
Method: as §1

## C=CC1CCC2C3CC=C4CC(OC5OC(C)C(O)C(O)C5OC(C)=O)CCC4(C)C3CCC12C (stereo not drawn) [Swiftiapregnene (I), Swiftiapregnene]
A549 human lung cells
  effect on cell cycle (sub-G1 population): increase in the sub-G1 population
[1]
  IC50: 7.4 µg/mL
[2]
  IC50: 21 µg/mL
